From patent publication US8883776B2, “Cycloalkyloxy- and heterocycloalkyloxypyridine compounds as modulators of the histamine H3 receptor” (Janssen Pharmaceutica N.V., priority 2007, dated 2014)
Counter-ions that a name gives are not always drawn.

Key:
[1] = target: T1, cloned human H3 receptors (Homo sapiens, UniProt Q9Y5N1); experiment: H3 Receptor Binding (Human); conditions: cloned human H3 receptors stably expressed in SK-N-MC cells; average of results
T1 construct: expressed in transfected cells
Procedure: H3 Receptor Binding (Human)
Binding of compounds to the cloned human H3 receptors, stably expressed in SK-N-MC cells, was performed as described by Barbier, A. J. et al. (Br. J. Pharmacol. 2004, 143(5), 649-661).

rat H3 receptor [2] = target: T2, rat H3 receptor (Rattus norvegicus, UniProt Q9QYN8); experiment: Cyclic AMP Accumulation, SK-N-MC cells expressing reporter construct and rat H3 receptor; type: cell-based; set-up: expressed in transfected cells; host or cells: SK-N-MC sublines with reporter construct; conditions: cAMP accumulation, average of results, read-out: Rat pA2 (converted)
Source text: (§1) Sublines of SK-N-MC cells were created that expressed a reporter construct and either the human or rat H3 receptor. The pA2 values were obtained as described by Barbier et al. (2004).

rat H3 receptor [3] = target: T2, rat H3 receptor; experiment: H3 Receptor Binding (Rat), rat brain membranes, N-[3H]-α-methylhistamine; conditions: rat brain without cerebellum membranes; 0.8 nM N-[3H]-α-methylhistamine; average of results
Procedure: H3 Receptor Binding (Rat)
A rat brain without cerebellum (Zivic Laboratories Inc., Pittsburgh, Pa.) was homogenized in 50 mM Tris-HCl/5 mM EDTA and centrifuged at 1,000 rpm for 5 min. The supernatant was removed and recentrifuged at 15,000 rpm for 30 min. Pellets were rehomogenized in 50 mM Tris/5 mM EDTA (pH 7.4). Membranes were incubated with 0.8 nM N—[^3H]-α-methylhistamine plus/minus test compounds for 60 min at 25° C. and harvested by rapid filtration over GF/C glass fiber filters (pretreated with 0.3% polyethylenimine) followed by four washes with buffer. Nonspecific binding was defined in the presence of 100 μM histamine. Inhibitory concentration (responsible for 50% inhibition of maximal effect, IC50) values were determined by a single site curve-fitting program (GraphPad, San Diego, Calif.) and converted to Ki values based on a N—[^3H]-α-methylhistamine dissociation constant (Kd) of 0.8 nM.

human H3 receptor = human H3 receptor (Homo sapiens, UniProt Q9Y5N1); experiment: Cyclic AMP Accumulation, SK-N-MC cells expressing reporter construct and human H3 receptor; type: cell-based; conditions: cAMP accumulation, average of results, read-out: Human pA2 (converted)
Source text: as §1

Chain of human H3 receptor (Q9Y5N1 whole entry): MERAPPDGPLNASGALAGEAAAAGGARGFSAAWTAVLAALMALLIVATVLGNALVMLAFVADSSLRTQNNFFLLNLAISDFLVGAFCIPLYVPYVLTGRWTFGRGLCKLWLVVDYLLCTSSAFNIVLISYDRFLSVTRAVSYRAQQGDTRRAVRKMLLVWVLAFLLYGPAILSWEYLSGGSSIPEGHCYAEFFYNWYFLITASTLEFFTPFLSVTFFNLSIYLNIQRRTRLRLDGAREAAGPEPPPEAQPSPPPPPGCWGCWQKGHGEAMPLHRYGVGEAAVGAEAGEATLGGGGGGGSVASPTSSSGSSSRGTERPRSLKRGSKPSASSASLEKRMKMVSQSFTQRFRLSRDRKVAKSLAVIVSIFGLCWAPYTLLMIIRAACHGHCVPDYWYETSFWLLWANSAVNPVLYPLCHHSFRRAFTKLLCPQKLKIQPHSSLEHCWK
T1 sequence (Q9Y5N1 whole entry): as above
T2 sequence (Q9QYN8 whole entry): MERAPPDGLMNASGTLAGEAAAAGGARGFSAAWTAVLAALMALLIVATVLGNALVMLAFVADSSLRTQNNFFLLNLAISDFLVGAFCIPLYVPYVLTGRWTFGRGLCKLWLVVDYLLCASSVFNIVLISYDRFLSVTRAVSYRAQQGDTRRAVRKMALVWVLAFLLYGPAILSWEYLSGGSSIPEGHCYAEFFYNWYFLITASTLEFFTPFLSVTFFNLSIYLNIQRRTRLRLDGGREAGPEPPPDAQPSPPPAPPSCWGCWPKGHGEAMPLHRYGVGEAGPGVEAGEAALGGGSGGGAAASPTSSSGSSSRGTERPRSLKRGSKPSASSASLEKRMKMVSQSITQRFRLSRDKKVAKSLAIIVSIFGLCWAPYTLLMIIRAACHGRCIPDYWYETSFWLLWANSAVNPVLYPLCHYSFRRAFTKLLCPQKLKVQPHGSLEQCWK

Row | Structure (SMILES) | Ki [1] | Kb (rat H3 receptor [2]) | Ki (rat H3 receptor [3]) | Kb (human H3 receptor)
1 | CC(C)N1CCCN(C(=O)c2ccc(OCC3(C)COC3)nc2)CC1 [Example 6, (4-Isopropyl-[1,4]diazepan-1-yl)-[6-(3-methyl-oxetan-3-ylmethoxy)-pyridin-3-yl]-methanone hydrochloride salt] | 37 nM |  |  | 
2 | N#Cc1nc(C(=O)N2CCCN(C3CC3)CC2)ccc1OC1CCOC1 (stereo not drawn) [Example 10, 6-(4-Cyclopropyl-[1,4]diazepane-1-carbonyl)-3-(tetrahydro-furan-3-yloxy)-pyridine-2-carbonitrile] | 21 nM |  |  | 
3 | CC(C)N1CCN(C(=O)c2ccc(OC3CCOC3)nc2)CC1 (stereo not drawn) [Example 1, (4-isopropyl-piperazin-1-yl)-[6-(tetrahydro-furan-3-yloxy)-pyridin-3-yl]-methanone hydrochloride salt] | 104 nM |  |  | 
4 | CC(C)N1CCN(C(=O)c2ccc(OCC3(C)COC3)nc2)CC1 [Example 5, (4-isopropyl-piperazin-1-yl)-[6-(3-methyl-oxetan-3-ylmethoxy)-pyridin-3-yl]-methanone hydrochloride salt] | 5010 nM |  |  | 
5 | CC(C)N1CCCN(C(=O)c2ccc(OC3CCOC3)nc2)CC1 (stereo not drawn) [Example 2, (4-Isopropyl-[1,4]diazepan-1-yl)-[6-(tetrahydro-furan-3-yloxy)-pyridin-3-yl]-methanone hydrochloride salt] | 9 nM |  |  | 

Molecules with a lower Ki [1], results first:

Row | Ki [1] | Kb (rat H3 receptor [2]) | Ki (rat H3 receptor [3]) | Kb (human H3 receptor) | Structure (SMILES)
6 | 2.2 nM |  |  |  | N#Cc1nc(C(=O)N2CCCN(C3CC3)CC2)ccc1OC1CCCCC1 [Example 12, 3-Cyclohexyloxy-6-(4-cyclopropyl-[1,4]diazepane-1-carbonyl)-pyridine-2-carbonitrile]
7 | 6 nM |  |  |  | N#Cc1nc(C(=O)N2CCCN(C3CC3)CC2)ccc1OC1CCCC1 [Example 11, 3-Cyclopentyloxy-6-(4-cyclopropyl-[1,4]diazepane-1-carbonyl)-pyridine-2-carbonitrile]
8 | 0.9 nM | 4.37 nM | 28 nM | 0.234 nM | O=C(c1ccc(OC2CCOCC2)nc1)N1CCCN(C2CCC2)CC1 [Example 9, (4-Cyclobutyl-[1,4]diazepan-1-yl)-[6-(tetrahydro-pyran-4-yloxy)-pyridin-3-yl]-methanone]
9 | 6.8 nM |  |  |  | O=C(c1ccc(OC2CCOC2)nc1)N1CCCN(C2CC2)CC1 (stereo not drawn) [Example 3, (4-Cyclopropyl-[1,4]diazepan-1-yl)-[6-(tetrahydro-furan-3-yloxy)-pyridin-3-yl]-methanone]
10 | 0.8 nM | 9.77 nM | 17 nM | 1.05 nM | O=C(c1ccc(OC2CCCCC2)nc1)N1CCCN(C2CCC2)CC1 [Example 8, (4-Cyclobutyl-[1,4]diazepan-1-yl)-(6-cyclohexyloxy-pyridin-3-yl)-methanone]
11 | 1.3 nM | 14.5 nM | 58 nM | 0.331 nM | O=C(c1ccc(OC2CCOC2)nc1)N1CCCN(C2CCC2)CC1 (stereo not drawn) [Example 4, (4-Cyclobutyl-[1,4]diazepan-1-yl)-[6-(tetrahydro-furan-3-yloxy)-pyridin-3-yl]-methanone]
12 | 1.1 nM | 4.79 nM | 44 nM | 0.49 nM | O=C(c1ccc(OC2CCCC2)nc1)N1CCCN(C2CCC2)CC1 [Example 7, (4-Cyclobutyl-[1,4]diazepan-1-yl)-(6-cyclopentyloxy-pyridin-3-yl)-methanone]
